# According to patent US12005050B2, “Methods for preventing or treating H. pylori infection” (TENNOR THERAPEUTICS (SUZHOU) LIMITED, priority 2022, dated 2024):
# Assay: Safety tolerance assessment, adverse events (Example 1)
# Type: in vivo, human
# Method: 40 asymptomatic healthy patients that are positive for Helicobacter pylori infection were admitted to the trial. The 40 patients were randomly allocated to four groups at a ratio of 1:1:1:1.
# Different therapies were administered to the patients of each group according to the schedule below: • Group A: • Compound I capsule 200 mg/time (2 capsules, 100 mg/capsule), twice per day (BID); rabeprazole sodium enteric-coated tablet 20 mg/time (1 tablet, 20 mg/tablet), twice per day (BID) • Group B: • Compound I capsule 400 mg/time (4 capsules, 100 mg/capsule), twice per day (BID); rabeprazole sodium enteric-coated tablet 20 mg/time (1 tablet, 20 mg/tablet), twice per day (BID) • Group C: • Compound I capsule 600 mg/time (6 capsules, 100 mg/capsule), twice per day (BID); rabeprazole sodium enteric-coated tablet 20 mg/time (1 tablet, 20 mg/tablet), twice per day (BID) • Group D: • Compound I capsule 400 mg/time (4 capsules, 100 mg/capsule), twice per day (BID); rabeprazole sodium enteric-coated tablet 20 mg/time (1 tablet, 20 mg/tablet), twice per day (BID); amoxicillin capsule 1 g/time (4 capsules, 0.25 g/capsule), twice per day (BID)
# All patients were admitted to the clinical research center 1 day before dosing (D-1 Day), randomly allocated to respective groups and completed examinations for safety and baseline indicators. From day 1 to day 14, respective therapies/drugs were orally administered to the patients within 30 minutes after breakfast and dinner. On day 15, the last dose was administered orally to the patients within 30 minutes after breakfast. During the trial, each patient was dosed for 29 times in total. All patients left the hospital after completing a safety tolerance assessment on day 17 and returned to the clinical research center for urea breath test (UBT) follow-up examination between days 44 and 50 to evaluate the effect of Helicobacter pylori eradication.
# The safety tolerance assessment incudes assessment of adverse events (AE), serious adverse events (SAE), drug-related AEs, and AEs leading to withdrawal.
# The number and incidence of all adverse events were summarized according to the respective trial group, systemic organ classification and preferred terminology.
# By trial group, according to the CTCA 5.0 rating, the list describes the incidence of adverse events in each trial group (occurred in each trial group alone, in 2 groups or 3 groups).
# By trial group, the mean, standard deviation, median, minimum and maximum values of vital signs (blood pressure, breathing, pulse and body temperature) and laboratory indicators before and after drug administration were calculated, and when necessary, paired t-test or non-parametric test were used for before-and-after comparison.
# SAE and Suspected Unintended Serious Adverse Reactions (SUSAR) were listed separately.
# [1] = Group A: Compound I 200 mg BID + rabeprazole sodium 20 mg BID
# [2] = Group A: Compound I 200 mg BID + rabeprazole sodium 20 mg BID, N = 10
# [3] = Group B: Compound I 400 mg BID + rabeprazole sodium 20 mg BID
# [4] = Group B: Compound I 400 mg BID + rabeprazole sodium 20 mg BID, N = 10
# [5] = Group C: Compound I 600 mg BID + rabeprazole sodium 20 mg BID
# [6] = Group C: Compound I 600 mg BID + rabeprazole sodium 20 mg BID, N = 10
# [7] = Group D: Compound I 400 mg BID + rabeprazole sodium 20 mg BID + amoxicillin 1 g BID
# [8] = Group D: Compound I 400 mg BID + rabeprazole sodium 20 mg BID + amoxicillin 1 g BID, N = 10
compound,measurement,setting,value
"CO[C@H]1/C=C/O[C@@]2(C)Oc3c(C)c(O)c4c(c3C2=O)C2=NC3(CCN(CCn5c([N+](=O)[O-])cnc5C)CC3)NC2=C(NC(=O)/C(C)=C\C=C\[C@H](C)[C@H](O)[C@@H](C)[C@@H](O)[C@@H](C)[C@H](OC(C)=O)[C@@H]1C)C4=O [Compound I, 4-Deoxy-3,4-[2-spiro-[1-[2-(2-methyl-5-nitro-imidazol-1-yl)ethyl]-piperidin-4-yl]]-(1H)-imidazo-(2,5-dihydro)rifamycin]","Elevated serum creatinine, number of cases",[1],4 cases
same,Incidence of elevated serum creatinine (common AE associated with the combination therapy),[1],30%
same,Incidence of hyperglycemia (common AE associated with the combination therapy),[1],20%
same,Drug related TEAE (patients/episodes),[2],(6/18)
same,Incidence of AEs: Drug related TEAE,[2],60%
same,Incidence of AEs: TEAE,[2],60%
same,TEAE (patients/episodes),[2],(6/18)
same,"Elevated serum creatinine, number of cases",[3],1 case
same,Grade 3 AEs,[3],3
same,Incidence of elevated hemobilirubin (common AE associated with the combination therapy),[3],"Group B: elevated hemobilirubin (20%), hyperglycemia (20%);"
same,Incidence of hyperglycemia (common AE associated with the combination therapy),[3],"Group B: elevated hemobilirubin (20%), hyperglycemia (20%);"
same,Drug related TEAE (patients/episodes),[4],(7/9)
same,Incidence of AEs: Drug related TEAE,[4],70%
same,Incidence of AEs: TEAE,[4],80%
same,TEAE (patients/episodes),[4],(8/12)
same,Common adverse events with incidence of ≥15% associated with the combination therapy,[5],Group C: absent;
same,"Elevated serum creatinine, number of cases",[5],2 cases
same,Drug related TEAE (patients/episodes),[6],(5/8)
same,Incidence of AEs: Drug related TEAE,[6],50%
same,Incidence of AEs: TEAE,[6],50%
same,TEAE (patients/episodes),[6],(5/8)
same,"Elevated serum creatinine, number of cases",[7],2 cases
same,Incidence of elevated alanine aminotransferase (common AE associated with the combination therapy),[7],"Group D: elevated alanine aminotransferase (20%), elevated aspartic acid aminotransferase (20%), hypertriglyceridemia (20%), hyperuricemia (20%), rash (20%), papules (20%)."
same,Incidence of elevated aspartic acid aminotransferase (common AE associated with the combination therapy),[7],"Group D: elevated alanine aminotransferase (20%), elevated aspartic acid aminotransferase (20%), hypertriglyceridemia (20%), hyperuricemia (20%), rash (20%), papules (20%)."
same,Incidence of hypertriglyceridemia (common AE associated with the combination therapy),[7],"Group D: elevated alanine aminotransferase (20%), elevated aspartic acid aminotransferase (20%), hypertriglyceridemia (20%), hyperuricemia (20%), rash (20%), papules (20%)."
same,Incidence of hyperuricemia (common AE associated with the combination therapy),[7],"Group D: elevated alanine aminotransferase (20%), elevated aspartic acid aminotransferase (20%), hypertriglyceridemia (20%), hyperuricemia (20%), rash (20%), papules (20%)."
same,Incidence of papules (common AE associated with the combination therapy),[7],"Group D: elevated alanine aminotransferase (20%), elevated aspartic acid aminotransferase (20%), hypertriglyceridemia (20%), hyperuricemia (20%), rash (20%), papules (20%)."
same,Incidence of rash (common AE associated with the combination therapy),[7],"Group D: elevated alanine aminotransferase (20%), elevated aspartic acid aminotransferase (20%), hypertriglyceridemia (20%), hyperuricemia (20%), rash (20%), papules (20%)."
same,Drug related TEAE (patients/episodes),[8],(7/17)
same,Incidence of AEs: Drug related TEAE,[8],70%
same,Incidence of AEs: TEAE,[8],80%
same,TEAE (patients/episodes),[8],(8/19)
same,"Decrease in renal creatinine clearance, incidence rate","Total, Groups A-D",7.5%
same,Drug-related AEs of grade 1,"Total, Groups A-D",45
same,Drug-related AEs of grade 2,"Total, Groups A-D",6 cases
same,"Drug-related skin abnormalities (rash, papules, itching), number of cases","Total, Groups A-D",8 cases
same,"Elevated serum creatinine, incidence rate","Total, Groups A-D",15%
same,"Elevated serum creatinine, number of cases","Total, Groups A-D",9 cases
same,"Grade 1 adverse events (CTC AE 5.0), number of cases","Total, Groups A-D",46 cases
same,"Grade 2 adverse events (CTC AE 5.0), number of cases","Total, Groups A-D",10 cases
same,"Hyperglycemia (unexpected adverse reaction), incidence","Total, Groups A-D",12.5%
same,"Skin abnormalities, number of cases","Total, Groups A-D",10 cases
same,"Unexpected adverse reactions, incidence","Total, Groups A-D",15.0%
same,Drug related TEAE (patients/episodes),"Total, Groups A-D, N = 40",(25/52)
same,Incidence of AEs: Drug related TEAE,"Total, Groups A-D, N = 40",62.5%
same,Incidence of AEs: TEAE,"Total, Groups A-D, N = 40",67.5%
same,TEAE (patients/episodes),"Total, Groups A-D, N = 40",(27/57)
same,"Hyperglycemia (unexpected adverse reaction), number of cases","Total, Groups A-D, grade 1",6 cases
same,"Unexpected adverse reactions, number of cases","Total, Groups A-D, grade 1",7 cases
same,"Elevated transaminases, number of cases","Total, Groups A-D, severity all grade 1",7 cases
same,Safety and tolerability of the combination therapy,administered continuously for 14 days in asymptomatic healthy people with positive Helicobacter pylori infection,good safety and tolerability characteristics
same,Serious adverse events (SAE),"entire trial, Groups A-D",no SAE
